In one assay the test system is HMEC-GFP cells. Description: Scratch wound closure assay, HMEC-GFP. It is filed as cell-based, human. Conditions: for IC50: wound closure after 24 h, 10% FCS, tested 3.125 μM to 100 μM; for activity on HMEC-GFP wound closure: structure-activity relationship analysis. From the text:
In order to adapt the endothelial scratch wounding assay to the constraints of high throughput screening, we decided to use an endothelial cell line rather than primary cultures for the sake of reproducibility. Since angiogenesis is triggered by capillary endothelial cells, we selected the HMEC-1 cell line which consists of human dermal microvascular endothelial cells stably expressing SV40 […] antigen. We infected this cell line with GFP-encoding retroviral particles and selected one clone (thereafter named HMEC-GFP) that presented a high level of fluorescence and a strong proliferation rate (doubling time in the presence of serum: 22 h). We controlled that GFP expression was stable over at least 50 passages and that these cells still expressed endothelial markers such as VE-cadherin and CD31. In a standard assay, HMEC-GFP cells were grown until confluence in 96-well plates in the presence of serum, scratched with the multi-tip dispenser of the HTS automat, gently rinsed twice to eliminate detached cells and cell debris that could liberate inflammatory and potentially angiogenic cytokines, and incubated for 24 h in the presence of serum and the compounds to be tested. Each well was photographed at time 0 h (after wounding) and 24 h under a motorized epifluorescence microscope and the digitized images were analyzed using Image J to determine the percentage of wound closure (Figure 1A, 1B). Under our standard conditions, the closure rate was 72 ± 4% in the positive controls and 27 ± 4.% in the negative controls.
(§1) Confluent cell monolayers were wounded with a plastic pipet tip, washed gently with phosphate buffer saline (PBS) and treated with complete media containing molecules, as indicated. Cells were placed at 37°C into the incubator and photographed at indicated times. Quantitation of closure of the monolayer was performed using the NIH Image J program (http://rsbweb.nih.gov/ij/). Results are expressed as percentage of wound closure at t = 24 h as compared to the initial wound at t = 0 h.

The next assay concerns 3T3-GFP cells. Description: Scratch wound closure assay, 3T3-GFP. It counts as cell-based. The following applies: wound closure after 24 h, 10% FCS, tested 3.125 μM to 100 μM.
Text: Using this assay, we screened the academic library of the University of Grenoble, which is composed of 1360 original molecules. Setting the threshold of significant responses at 75% of the maximal inhibition, we identified 80 inhibitory molecules. At this stage, we reasoned that molecules that would affect the cytoskeleton dynamics or the adhesion properties of any cell type would be positive in this assay but would not represent good candidates for further development. We thus decided to perform a secondary counterscreen of the first 80 selected compounds on GFP-expressing 3T3 fibroblasts (3T3-GFP) using the same scratch assay. We then focused our interest on the 5 molecules that inhibited more strongly HMEC-GFP than 3T3-GFP wound healing. […] We synthesized a series of 30 analogs and tested them at various concentrations both on HMEC-GFP and 3T3-GFP cells. […] Dansyl and naphthalimide aromatic groups, found in COB223 and COB227 respectively, appeared very efficient. The presence of the diaminomethyl group on dansyl is critical for the activity of COB223 as shown by the lower efficiency of COB235 (IC50 is 8 times higher than that of COB223). COB223 and COB227 contain a tert-butyloxycarbonyl function (BOC group) as a second hydrophobic group. Replacement of BOC by an amino group decreased the efficiency and the specificity (compare 05-102-L-B09 vs 05-06-L-D03, or COB227 vs COB228).
as §1

Counter-ions that a name gives are not always drawn.

As to “1,4-bis[3-(5-(Dimethylamino)naphthalene-1-sulfonamido)propylamino]piperazine [COB222]”, the half-inhibitory concentration (IC50) with HMEC-GFP cells and with 3T3-GFP cells was greater than 50 µM each time. On to `NCCCN` [1,3-diaminopropane, reference compound], for which, in the assay with HMEC-GFP cells, the “activity on HMEC-GFP wound closure” value was “inactive” and the 50% inhibitory concentration (IC50) was greater than 100 µM.

Consider `CN(C)c1cccc2c(S(=O)(=O)NCCCO)cccc12` [COB220, 5-(Dimethylamino)-N-[3-hydroxypropyl]naphthalene-1-sulfonamide], for which the IC50 in the assay on HMEC-GFP cells (Homo sapiens) is 40 µM; in the assay on 3T3-GFP cells, greater than 50 µM.

In the case of `CN(C)CCCNS(=O)(=O)c1cccc2c(N(C)C)cccc12` [COB221, 5-(Dimethylamino)-N-[3-(dimethylamino)propyl]naphthalene-1-sulfonamide], the half-maximal inhibitory concentration (IC50) with HMEC-GFP cells (Homo sapiens) is 20 µM; with 3T3-GFP cells it was 150 µM.

As to `CN(C)c1cccc2c(S(=O)(=O)N3CCN(CCOCCO)CC3)cccc12` [COB224, 2-(2-{4-[5-(Dimethylamino)naphthalene-1-sulfonyl]piperazin-1-yl}ethoxy)ethan-1-ol], the IC50 in the assay on HMEC-GFP cells (Homo sapiens) and in the assay with 3T3-GFP cells was greater than 50 µM throughout. `CN(C)c1cccc2c(S(=O)(=O)NCCOCCO)cccc12` [COB225, 2-{2-[5-(Dimethylamino)naphthalene-1-sulfonamido]ethoxy}ethan-1-ol]: the IC50 in the assay on HMEC-GFP cells (Homo sapiens) and in the assay on 3T3-GFP cells was greater than 50 µM each time. Regarding `NCCCN1C(=O)c2cccc3cccc(c23)C1=O` [COB226, N-(3-Aminopropyl)-1,8-naphthalimide hydrochloride], the IC50 in the assay with HMEC-GFP cells (Homo sapiens) and in the assay on 3T3-GFP cells was greater than 50 µM each time. As for `NCCCN1CCN(CCCN2C(=O)c3cccc4cccc(c34)C2=O)CC1` [COB228, N-{3-[4-(3-Aminopropyl)piperazin-1-yl]propyl}-1,8-naphthalimide hydrochloride], the results for the IC50 with HMEC-GFP cells (Homo sapiens) and in the assay on 3T3-GFP cells were 25 µM and 40 µM, respectively. Regarding `CC(C)(C)OC(=O)NCCCN1CCN(CCCNS(=O)(=O)c2cccc3ccccc23)CC1` [COB235, tert-Butyl 3-(4-(3-(naphthalene-1-sulfonamido)propyl)piperazin-1-yl) propylcarbamate], the IC50 in the assay on HMEC-GFP cells (Homo sapiens) is 40 µM; in the assay with 3T3-GFP cells, greater than 50 µM. With `Cc1ccc(S(=O)(=O)NCCCN2CCN(CCCNC(=O)OC(C)(C)C)CC2)cc1` [COB236, tert-Butyl 3-(4-(3-(4-methylphenylsulfonamido)propyl)piperazin-1-yl) propylcarbamate], the half-inhibitory concentration (IC50) in the assay on HMEC-GFP cells (Homo sapiens) and in the assay on 3T3-GFP cells was greater than 50 µM in each case.

With `CC(C)(C)OC(=O)NCCCN1CCN(CCCNC(=O)c2ccccc2)CC1` [COB237, tert-Butyl 3-(4-(3-phenylamidopropyl)piperazin-1-yl)propylcarbamate], the IC50 with HMEC-GFP cells (Homo sapiens) and in the assay with 3T3-GFP cells was greater than 50 µM throughout. As for `CC(C)(C)OC(=O)NCCCN1CCN(CCCNC(=O)OCc2ccc([N+](=O)[O-])cc2)CC1` [COB238, 4-Nitrobenzyl N-[3-(4-{3-[(tert-butoxycarbonyl)amino]propyl}piperazin-1-yl)propyl] carbamate], the half-maximal inhibitory concentration (IC50) in the assay with HMEC-GFP cells (Homo sapiens) is 20 µM; in the assay on 3T3-GFP cells it was greater than 50 µM. `CN(C)c1ccc2c3c(cccc13)C(=O)N(CCCN1CCN(CCCNC(=O)OC(C)(C)C)CC1)C2=O` [COB274, N-{3-[4-(3-tert-Butoxycarbonylaminopropyl)piperazin-1-yl]propyl}-4-dimethylamino-1,8-naphthalimide] showed a half-inhibitory concentration (IC50) in the assay with HMEC-GFP cells (Homo sapiens) greater than 100 µM. Consider `CN(C)c1ccc2c3c(cccc13)C(=O)N(CCCNCCCNC(=O)OC(C)(C)C)C2=O` [COB275, N-[3-((3-tert-Butoxycarbonylaminopropyl)amino)propyl]-4-dimethylamino-1,8-naphthalimide], for which the IC50 worked out at 12.5 µM in the assay on HMEC-GFP cells (Homo sapiens) and 50 µM in the assay with 3T3-GFP cells. Regarding `CN(C)c1ccc2c3c(cccc13)C(=O)N(CCCNC(=O)OC(C)(C)C)C2=O` [COB276, N-(3-(tert-Butoxycarbonylamino)propyl)-4-dimethylamino-1,8-naphthalimide], the 50% inhibitory concentration (IC50) in the assay with HMEC-GFP cells (Homo sapiens) was greater than 100 µM. Same read-out and setting: with `NCCCN1C(=O)c2cccc3cc([N+](=O)[O-])cc(c23)C1=O` [COB277, N-(3-Aminopropyl)-3-nitro-1,8-naphtalimide hydrochloride] the figure was greater than 100 µM. As for `O=C1c2cccc3cc([N+](=O)[O-])cc(c23)C(=O)N1CCCNCCCN1C(=O)c2cccc3cc([N+](=O)[O-])cc(c23)C1=O` [COB278, Bis-[(3-nitro-1,8-naphthalimido)propyl]amine], the 50% inhibitory concentration (IC50) with HMEC-GFP cells (Homo sapiens) stood at 12.5 µM; with 3T3-GFP cells it was 25 µM. As to `CC(C)(C)OC(=O)NCCCN1CCN(CCCN2C(=O)c3cccc4cc([N+](=O)[O-])cc(c34)C2=O)CC1` [COB280, N-{3-[4-(3-tert-Butoxycarbonylaminopropyl)piperazin-1-yl]propyl}-3-nitro-1,8-naphthalimide], the figures for the half-maximal inhibitory concentration (IC50) in the assay with HMEC-GFP cells (Homo sapiens) and in the assay with 3T3-GFP cells were 25 µM and greater than 100 µM, respectively.

Consider `CC(C)(C)OC(=O)NCCCNCCCN1C(=O)c2cccc3cc([N+](=O)[O-])cc(c23)C1=O` [COB281, N-[3-((3-tert-Butoxycarbonylaminopropyl)amino)propyl]-3-nitro-1,8-naphthalimide], for which the half-inhibitory concentration (IC50) is 25 µM with HMEC-GFP cells (Homo sapiens) and greater than 50 µM in the assay with 3T3-GFP cells.

Compound `CC(C)(C)OC(=O)NCCCN1C(=O)c2cccc3cc([N+](=O)[O-])cc(c23)C1=O` [COB282, N-(3-(tert-Butoxycarbonylamino)propyl)-3-nitro-1,8-naphthalimide] registered a concentration for half-maximal inhibition (IC50) in the assay with HMEC-GFP cells (Homo sapiens) greater than 100 µM. The same measure, in the same setting: with `CC(C)(C)OC(=O)NCCCN1C(=O)c2cccc3cccc(c23)C1=O` [COB283, N-(3-(tert-Butoxycarbonylamino)propyl)-1,8-naphthalimide] the figure was greater than 100 µM. `CN(C)c1cccc2c(S(=O)(=O)NCCOCCOCCNC(=O)OC(C)(C)C)cccc12` [COB296, tert-Butyl N-(2-[2-{2-(5-(dimethylamino)naphthalene-1-sulfonamido)ethoxy}ethoxy]ethyl) carbamate] showed an IC50 in the assay with HMEC-GFP cells (Homo sapiens) of 5 µM. Regarding `NCCCCCCNS(=O)(=O)c1cccc2c(Cl)cccc12` [Compound W7, reference compound], the concentration for half-maximal inhibition (IC50) with HMEC-GFP cells (Homo sapiens) and in the assay on 3T3-GFP cells was 35 µM each time. On to `NCCN` [Ethylene diamine, 1,2-ethylenediamine, reference compound], for which, in the assay on HMEC-GFP cells, the “activity on HMEC-GFP wound closure” value is “inactive” and the IC50 is greater than 100 µM.

Regarding `CN(C)c1cccc2c(S(=O)(=O)NCCCCCN)cccc12` [dansylcadaverine, monodansylcadaverine, reference compound], the half-inhibitory concentration (IC50) in the assay on HMEC-GFP cells (Homo sapiens) and with 3T3-GFP cells was greater than 50 µM in each case. Moreover, the “activity on HMEC-GFP wound closure” value in the assay on HMEC-GFP cells was “inactive”.

With `NCCCCN` [putrescine, 1,4-diaminobutane, reference compound], in the assay with HMEC-GFP cells (Homo sapiens), the 50% inhibitory concentration (IC50) is greater than 100 µM. In addition, the “activity on HMEC-GFP wound closure” value in the assay on HMEC-GFP cells is “inactive”. With `NCCCNCCCCNCCCN` [spermine, reference compound], in the assay with HMEC-GFP cells, the “activity on HMEC-GFP wound closure” value was “inactive”. For “N-(5-(Dimethylamino)naphthalene-1-sulfonamido)-1,3-diamino-propane [Compound 05-06-L-D03]”, the IC50 came out at 25 µM in the assay with HMEC-GFP cells and 200 µM with 3T3-GFP cells. As for “N-(5-(Dimethylamino)naphthalene-1-sulfonamido)-N'-(tert-butoxycarbonyl)-1,3-diamino-propane [Compound 05-102-B09]”, the half-inhibitory concentration (IC50) in the assay on HMEC-GFP cells amounted to 18 µM; in the assay on 3T3-GFP cells, 150 µM.

Source of the values: paper PMC4467156, “A new chemical inhibitor of angiogenesis and tumorigenesis that targets the VEGF signaling pathway upstream of Ras” (Oncotarget, 2015).
